Reference: patent US10975399B2, “Use of nitric oxide or nitric oxide donor for inducing the production of triacylglycerols in microalgae” (Commissariat A L'energie Atomique Et Aux Energies …, priority 2016, dated 2021)

How the values were obtained:
[1] = tested on: Phaeodactylum tricornutum; test: Growth of P. tricornutum incubated with the NO donor (cell counting); format: cell-based; settings: 1 mM, 2-day incubation, 500 μL volume, 10×ESAW medium, FIG. 1
Method: FIGS. 1 to 4: Effect of increasing concentrations of SNAP on the production of TAG in Phaedocatylum tricornutum. The medium used was 10×ESAW; incubation was performed in 500 μl, inoculated at 1E+06 cells/ml, with immediate addition of chemicals. Measurements were performed after 2 days of incubation. Data of FIGS. 1 and 2 and 3 are the results of 3 biological replicates, FIG. 4 was a time course without replicates. NAP was used as a non-active analogue of SNAP. FIG. 1: Effect of increasing concentrations of SNAP on growth. Growth is measured in cell/mL. Phaeodactylum tricornutum (Ptl) Bohlin Strain 8.6 CCMP2561 (Culture Collection of Marine Phytoplankton, now known as NCMA: National Center for Marine Algae and Microbiota) was used in all experiments. Ptl was grown at 20° C. in 250 mL flask in artificial seawater (ESAW) medium (composition of the medium see table 1) using ten times enriched nitrogen and phosphate sources (5.49·10^−3 M NaNO3 and 2.24·10^−4 NaH3PO4) called “10×ESAW”, or nitrogen-depleted medium. Cells were grown on a 12:12 light (30 μE m^−2sec^−1)/dark cycle. Cells were sub-cultured twice a week by inoculating 1·10^6 cells/ml with fresh media. Growth was evaluated by cell counting using a Malassez counting chamber, or by the absorption at 750 nm using a plate reader. S-Nitroso-N-acetylpenicillamine (SNAP) is a compound that spontaneously releases NO, when dissolved.

[2] = tested on: Phaeodactylum tricornutum; test: TAG accumulation by Nile Red staining; format: cell-based; settings: 1 mM, 2-day incubation, 500 μL volume, 10×ESAW medium
Method: FIGS. 1 to 4: Effect of increasing concentrations of SNAP on the production of TAG in Phaedocatylum tricornutum. The medium used was 10×ESAW; incubation was performed in 500 μl, inoculated at 1E+06 cells/ml, with immediate addition of chemicals. Measurements were performed after 2 days of incubation. Data of FIGS. 1 and 2 and 3 are the results of 3 biological replicates, FIG. 4 was a time course without replicates. NAP was used as a non-active analogue of SNAP. FIG. 2: Effect of increasing concentrations of SNAP on TAG level per cell. TAG level per cell is given in relative fluorescence units/10^6 cells. FIG. 3: Effect of increasing concentrations of SNAP on TAG productivity. TAG productivity is given in relative fluorescence unit (Rfu) corresponding to the fluorescence of Nile Red per mL and per day. […] Growth was evaluated by cell counting using a Malassez counting chamber, or by the absorption at 750 nm using a plate reader. […] Accumulation of TAG droplets was monitored by Nile Red (Sigma Aldrich) fluorescent staining (Excitation wavelength at 485 nm; emission at 525 nm) following the principles previously described (Abida et al., 2015). In brief, cells were diluted and adjusted to a cell density that was linearly correlated with Nile Red fluorescence. […] Alternatively, Nile red fluorescence values were normalized to the cell concentration.

Which results are given for `CC(=O)N[C@H](C(=O)O)C(C)(C)SN=O` (racemic) [SNAP, S-Nitroso-N-acetylpenicillamine]?
cell growth [1]: reduction of cell growth; increase of productivity (level of TAG per volume of culture and per day) ([2]; Nile Red Rfu per mL and per day, FIG. 3): > 2 fold; increase of TAG per cell ([2]; Nile Red fluorescence per 10^6 cells, FIG. 2): 2.2 fold
